Measured values reported in patent US10829520B2, “Beta-hairpin peptidomimetics” (POLYPHOR AG, priority 2015, dated 2020).
Where a SMILES comes first, the peptide text is derived from it. Bridges are numbered along the chain shown (N, C = ends). Roman numbers before positions name the chains, in order. [ ]: non-standard residue; d: D form. Tle = CC(C)(C)[C@H](N)C(=O)O; Nle = CCCC[C@H](N)C(=O)O; Orn = NCCC[C@H](N)C(=O)O; Dab = NCC[C@H](N)C(=O)O; Sar = CNCC(=O)O

What was measured:
Type in all cases: cell-based
[1] = tested on: Klebsiella pneumoniae SSI #3010; details: SSI #3010
Outline: (§1)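 CLSI broth microdilution; MH-II (cation-adjusted) + 0.002% P-80; ~10^6 CFU/mL inoculum; peptide two-fold serial dilutions; 18-20 h, 35° C; MIC = no visible growth, μg/mL.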

[2] = tested on: Klebsiella pneumoniae 968733; details: 968733
[3] = tested on: Escherichia coli ATCC 25922; details: ATCC 25922
Outline: as §1

[4] = tested on: Acinetobacter baumannii DSM 30008; details: DSM 30008
Outline: as §1

Escherichia coli 926415 = details: 926415
[5] = tested on: Pseudomonas aeruginosa ATCC 27853; details: ATCC 27853
Outline: as §1

[6] = tested on: Acinetobacter baumannii 872842; details: 872842
[7] = tested on: human red blood cells (hRBC); assay: Hemolysis of human red blood cells; details: red cells of human, 1 h
Outline: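 hRBC washed 3× PBS; 20% v/v, ~0.9×10^9 cells/mL final. Peptide 100 μg/mL, 1 h, 37° C., 300 rpm. Spin, supernatant diluted 8×, OD540. 0% = PBS + 0.001% acetic acid; 100% = 2.5% Triton X-100. % hemolysis = OD540 peptide/OD540 full lysis × 100.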

## CNCC(=O)N[C@@H](Cc1c[nH]c2ccccc12)C(=O)N[C@H]1CSSC[C@@H](C(=O)N(C)CC(=O)N[C@@H](CCN)C(=O)N[C@H](C(=O)N[C@@H](CCN)C(=O)N[C@H]2CCNC(=O)[C@H]([C@@H](C)O)NC(=O)[C@H](CCN)NC(=O)[C@H](CCN)NC(=O)[C@H](CC(C)C)NC(=O)[C@@H](CC(C)C)NC(=O)[C@H](CCN)NC2=O)[C@@H](C)O)NC(=O)[C@H](Cc2ccc(O)cc2)NC(=O)[C@H](CO)NC(=O)[C@H](CC(C)C)NC(=O)[C@@H]2CCCN2C(=O)[C@H]2CCCN2C(=O)[C@H](CCN)NC(=O)[C@H](C)NC(=O)[C@H](C(C)C)NC1=O [Ex. 185] (H-[Sar]WCVA[Dab][dP]PLSYC[Sar][Dab]T[Dab][Dab][Dab][dL]L[Dab][Dab]T; disulfide 3-12; lactam 17-C)
[1]
  Klebsiella pneumoniae SSI #3010 MIC: 1 µg/mL
[2]
  Klebsiella pneumoniae 968733 MIC: 8 µg/mL
[3]
  Escherichia coli ATCC 25922 MIC: 0.25 µg/mL
[4]
  Acinetobacter baumannii DSM 30008 MIC: 0.25 µg/mL
Escherichia coli 926415
  Escherichia coli 926415 MIC: 2 µg/mL
[5]
  Pseudomonas aeruginosa ATCC 27853 MIC: 1 µg/mL
[6]
  Acinetobacter baumannii 872842 MIC: 1 µg/mL
[7]; 100 μg/mL
  Hemolysis at 100 μg/mL: 1%

## CCCC[C@@H]1NC(=O)[C@@H]2CCCN2C(=O)[C@H]2CCCN2C(=O)[C@H](CO)NC(=O)[C@H](C)NC(=O)[C@H](C(C)(C)C)NC(=O)[C@H](CCN)NC(=O)[C@H](Cc2c[nH]c3ccccc23)NC(=O)[C@H](CCN)NC(=O)[C@@H](CCC(=O)N[C@H](C(=O)N[C@@H](CCN)C(=O)N[C@H]2CCNC(=O)[C@H]([C@@H](C)O)NC(=O)[C@H](CCN)NC(=O)[C@H](CCN)NC(=O)[C@H](CC(C)C)NC(=O)[C@@H](Cc3ccccc3)NC(=O)[C@H](CCN)NC2=O)[C@@H](C)O)NC(=O)[C@H](CCCN)NC(=O)[C@H](CCN)NC(=O)[C@H](Cc2ccc(O)cc2)NC(=O)[C@H](CO)NC1=O [Ex. 5] (I: cyclo([Nle]SY[Dab][Orn][dE][Dab]W[Dab][Tle]AS[dP]P) / II: T[Dab][Dab][Dab][dF]L[Dab][Dab]T; amide I:6-II:N; lactam II:3-II:C)
[1]
  Klebsiella pneumoniae SSI #3010 MIC: 0.5 µg/mL
[2]
  Klebsiella pneumoniae 968733 MIC: 2 µg/mL
[3]
  Escherichia coli ATCC 25922 MIC: 2 µg/mL
[4]
  Acinetobacter baumannii DSM 30008 MIC: 0.5 µg/mL
Escherichia coli 926415
  Escherichia coli 926415 MIC: 0.5 µg/mL
[5]
  Pseudomonas aeruginosa ATCC 27853 MIC: 0.5 µg/mL
[6]
  Acinetobacter baumannii 872842 MIC: 1 µg/mL
[7]; 100
  Hemolysis at 100 μg/mL: 1%

## CCCC[C@@H]1NC(=O)[C@@H]2CCCN2C(=O)[C@H]2CCCN2C(=O)[C@H](CO)NC(=O)[C@H](C)NC(=O)[C@H](C(C)(C)C)NC(=O)[C@@H](NC(=O)[C@H](Cc2c[nH]c3ccccc23)NC(C)=O)CSSC[C@@H](C(=O)N[C@@H](CCN)C(=O)N[C@H](C(=O)N[C@@H](CCN)C(=O)N[C@@H](CCN)C(=O)N[C@H]2CCNC(=O)[C@H]([C@@H](C)O)NC(=O)[C@H](CCN)NC(=O)[C@H](CCN)NC(=O)[C@H](CC(C)C)NC(=O)[C@@H](Cc3ccccc3)NC(=O)[C@H](CCN)NC2=O)[C@@H](C)O)NC(=O)[C@H](Cc2ccc(O)cc2)NC(=O)[C@H](CO)NC1=O [Ex. 34] (Ac-WC[Tle]AS[dP]P[Nle]SYC[Dab]T[Dab][Dab][Dab][Dab][dF]L[Dab][Dab]T; disulfide 2-11; lactam 16-C)
[1]
  Klebsiella pneumoniae SSI #3010 MIC: 0.125 µg/mL
[2]
  Klebsiella pneumoniae 968733 MIC: 1 µg/mL
[3]
  Escherichia coli ATCC 25922 MIC: 0.0625 µg/mL
[4]
  Acinetobacter baumannii DSM 30008 MIC: 0.25 µg/mL
Escherichia coli 926415
  Escherichia coli 926415 MIC: 0.25 µg/mL
[5]
  Pseudomonas aeruginosa ATCC 27853 MIC: 0.125 µg/mL
[6]
  Acinetobacter baumannii 872842 MIC: 0.125 µg/mL
[7]; 100 μg/mL
  Hemolysis at 100 μg/mL: 1%

## CC(C)C[C@@H]1NC(=O)[C@@H](CC(C)C)NC(=O)[C@H](CCN)NC(=O)[C@@H](NC(=O)[C@H](CCN)NC(=O)CN(C)C(=O)C[C@@H]2NC(=O)[C@H](CCCN)NC(=O)[C@H](CCN)NC(=O)[C@H](Cc3ccc(O)cc3)NC(=O)[C@H](CO)NC(=O)[C@H](CC(C)C)NC(=O)[C@@H]3CCCN3C(=O)[C@H]3CCCN3C(=O)[C@H](Cc3ccc(O)cc3)NC(=O)[C@H](C)NC(=O)[C@H](C(C)(C)C)NC(=O)[C@H](CCN)NC(=O)[C@H](Cc3c[nH]c4ccccc34)NC(=O)[C@H](CCN)NC2=O)CCNC(=O)[C@H]([C@@H](C)O)NC(=O)[C@H](CCN)NC(=O)[C@H](CCN)NC1=O [Ex. 77] (I: cyclo(LSY[Dab][Orn]D[Dab]W[Dab][Tle]AY[dP]P) / II: [Sar][Dab][Dab][Dab][dL]L[Dab][Dab]T; amide I:6-II:N; lactam II:3-II:C)
[1]
  Klebsiella pneumoniae SSI #3010 MIC: 1 µg/mL
[2]
  Klebsiella pneumoniae 968733 MIC: 2 µg/mL
[3]
  Escherichia coli ATCC 25922 MIC: 1 µg/mL
[4]
  Acinetobacter baumannii DSM 30008 MIC: 1 µg/mL
Escherichia coli 926415
  Escherichia coli 926415 MIC: 0.5 µg/mL
[5]
  Pseudomonas aeruginosa ATCC 27853 MIC: 1 µg/mL
[6]
  Acinetobacter baumannii 872842 MIC: 2 µg/mL
[7]; 100
  Hemolysis at 100 μg/mL: <1%
